Data on one compound can be found in US20240174638A1, “HETEROARYL DERIVATIVES AS APELIN RECEPTOR AGONISTS” (RESEARCH TRIANGLE INSTITUTE, priority 2021, published 2024).

Each structure is given as a SMILES string.

Data set [1] in a line: in vitro. Particulars: rat, pH 7.4.
Data set [2] deals with Human plasma protein. The conditions noted are these: 6 h, 1 μM.
Data set [3] has as its system Mouse plasma protein. Particulars: 6 h, 1 μM.

Turning to `O=C(O)C[C@H](CCN1CCCC(F)(F)C1)NC(=O)c1cc(-c2ccccc2C(F)(F)F)n(-c2nccs2)n1` [Example 22, (3S)-5-(3,3-difluoropiperidin-1-yl)-3-{[1-(1,3-thiazol-2-yl)-5-[2-(trifluoromethyl)phenyl]-1H-pyrazol-3-yl]formamido}pentanoic acid], in data set [1], the recovery at 6 h, 1 μM is 72.7%. Further, in data set [2], the “% Protein Bound Rep 1” value was found to be 36.79%, the “% Protein Bound Rep 2” value was determined as 90.21%, the “% Protein Bound Rep 3” value worked out at 87.89% and the “Buffer Concentration Rep 1” value is 80.7 nM. For the same compound, in data set [2], the “Buffer Concentration Rep 2” value was 70.2 nM, the “Buffer Concentration Rep 3” value was found to be 81.2 nM, the “Mean % Protein Bound” value is 88.29% and the “Plasma Concentration Rep 1” value is reported as 611.0 nM. In addition, in data set [2], the “Plasma Concentration Rep 2” value amounted to 717.1 nM and the “Plasma Concentration Rep 3” value is reported as 670.6 nM. Moreover, in data set [3], the “% Protein Bound Rep 1” value stood at 92.07%, the “% Protein Bound Rep 2” value came out at 90.96%, the “% Protein Bound Rep 3” value was 91.91% and the “Buffer Concentration Rep 1” value is 67.1 nM. Besides, in data set [3], the “Buffer Concentration Rep 2” value stood at 79.3 nM, the “Buffer Concentration Rep 3” value is listed as 67.6 nM, the “Mean % Protein Bound” value came out at 91.60% and the “Plasma Concentration Rep 1” value was 846.3 nM. Besides, in data set [3], the “Plasma Concentration Rep 2” value is reported as 877.0 nM and the “Plasma Concentration Rep 3” value came to 835.8 nM.
